Four compounds from paper PMC6906117, “Desolvation of the substrate-binding protein TauA dictates ligand specificity for the alkanesulfonate ABC importer TauABC” (Biochemical Journal, 2019) can be followed below.

SMILES strings stand for the structures. “Also recorded” adds a separate entry of the source. Like-named read-outs stand apart in the source and are kept apart here. Marks after values point to notes of the source that are not given here.

The target of one test is T1, TauA (Escherichia coli, UniProt Q47537).
T1 construct: His tag with TEV site (pEHisTEV vector) (cleaved yes); made in house; host or cells: E. coli BL21 (DE3)
T1 sequence (Q47537 23-320): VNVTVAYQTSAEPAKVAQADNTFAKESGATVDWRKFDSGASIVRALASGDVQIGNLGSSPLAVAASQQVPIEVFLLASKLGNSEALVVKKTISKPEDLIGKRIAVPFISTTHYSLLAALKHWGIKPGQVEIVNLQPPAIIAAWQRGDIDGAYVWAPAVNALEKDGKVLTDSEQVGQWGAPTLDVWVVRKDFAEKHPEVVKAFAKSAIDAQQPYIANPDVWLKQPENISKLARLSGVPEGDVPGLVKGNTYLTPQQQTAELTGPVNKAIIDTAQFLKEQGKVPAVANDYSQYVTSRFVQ
Put plainly: Isothermal titration calorimetry, ligand binding to wild-type TauA. More on the design: species or system E. coli. Here is the method:
The gene encoding for the mature TauA from E. coli (accession number: K12-Q47537) was cloned into the pEHisTEV vector. BL21 (DE3) cells transformed with pEHisTEVtauA plasmid were grown at 310 K. Isopropyl β-D-1-thiogalactopyranoside was added to a final concentration of 0.5 mM when the culture reached an OD600 of 0.6, and the growth continued at 298 K for 18 h. Cells were harvested by centrifugation (6000×g) and resuspended in PBS supplemented with 20 mM imidazole and 3 mM MgCl2. Cells were lysed by sonication (10 cycles; 10 s per cycle with 10 s interval on ice) followed by centrifugation at 30 000 g for 1 h. The supernatant was subjected to Ni-NTA affinity chromatography followed by overnight dialysis with TEV protease and size exclusion chromatography using a Superdex S-200 column equilibrated with 20 mM Tris (pH 7.5) and 150 mM NaCl. […] SDS–PAGE indicated high purity.
(§1) Binding of ligands to TauA and mutants was measured at 298 K using ITC (MicroCal iTC200 microcalorimeter, Malvern Instruments). The protein buffer was in 20 mM Tris (pH 7.5) and 150 mM NaCl (ITC buffer). Protein and ligands were diluted to desired concentrations using ITC buffer. The pH of protein and ligand was adjusted at 277 K. An amount of 200 µl of protein and 60 µl of ligand was added into the sample cell and injection syringe, respectively. Seventeen 2.4 µl injections were performed with a pre-injection of 0.5 µl, a 180 s interval and an injection speed of 0.5 µl/s. Control experiments were performed where ligand was injected into ITC buffer. The heat of interaction was obtained by subtracting control measurements (heat of dilution) from the experimental measurements. The baseline was generated and the concentration-normalized binding isotherm was integrated using the MicroCal Origin software (version 7). The first injection peak was deleted from the isotherm. The isotherm was fitted to a single-site binding model. Values of binding constant (Ka, M^−1), enthalpy change (ΔH, J/mol) and binding stoichiometry (n) were allowed to vary (unless mentioned specifically) during the fitting procedure. The dissociation constant (Kd, M) and entropy change (ΔS, J/mol/K) were derived from Ka, ΔH and n accordingly. The Kd value is derived from the absolute value of Ka (Kd = 1/Ka).
Background: Isothermal titration calorimetry measures the heat released or taken up as one component is titrated into another.

Another test deals with TauA Gln30Ala (Escherichia coli, UniProt Q47537, Q30A). Put plainly: biochemical. It counts as binding, E. coli. Particulars: ITC, Gln30Ala mutant. Here is the method: (§2) Alanine-substituted TauA mutants (Gln30Ala, Glu106Ala, Thr132Ala and Asp205Ala) were generated by PCR using the QuikChange Lightning Site-Directed Mutagenesis Kit (Agilent Technologies). Mutations were confirmed by DNA sequencing. Mutants were expressed and purified as for the wild-type TauA.
Chain of TauA Gln30Ala (Q47537 23-320 Q30A): as the sequence (Q47537 23-320) above, with Q8A counted along it
as §1

The target of the next test is TauA Thr132Ala (Escherichia coli, UniProt Q47537, T132A). Put plainly: biochemical. It counts as binding, E. coli. As to conditions: Thr132Ala mutant. The method, then: as §2, §1
Chain of TauA Thr132Ala (Q47537 23-320 T132A): as the sequence (Q47537 23-320) above, with T110A counted along it
The next test concerns the target TauA Asp205Ala (Escherichia coli, UniProt Q47537, D205A). Put plainly: biochemical. It counts as binding, E. coli. Particulars: Asp205Ala mutant. Here is the method:
as §2, §1

Another test deals with TauA Glu106Ala (Escherichia coli, UniProt Q47537, E106A). It is filed as binding, E. coli. Particulars: ITC, Glu106Ala mutant. Here is the method: as §2
Chain of TauA Glu106Ala (Q47537 23-320 E106A): as the sequence (Q47537 23-320) above, with E84A counted along it
as §1, with “Values of binding constant (Ka, M^−1), enthalpy change (ΔH, J/mol) and binding stoichiometry (n) were allowed to vary (unless mentioned specifically) during the fitting procedure. The dissociation constant (Kd, M) and entropy change (ΔS, J/mol/K) were derived from Ka, ΔH and n accordingly. The Kd value is derived from the absolute value of Ka (Kd = 1/Ka).” left out

The mark [1] stands for this setting: ITC, 298 K, 20 mM Tris pH 7.5, 150 mM NaCl, read-out: Kd.
Setting [2] is: ITC, read-out: Kd (apparent affinity).
The mark [3] stands for this setting: stoichiometry fixed to 0.8 during data fitting.

Chain of TauA Asp205Ala (Q47537 23-320 D205A): as the sequence (Q47537 23-320) above, with D183A counted along it

For the compound `NC(=O)CNCCS(=O)(=O)O` [ACES, N-(2-acetamido)-2-aminoethanesulfonic acid], the “heat of binding to TauA (exothermic/endothermic)” value (“heat … (exothermic/endothermic)” below) at TauA (ITC) is given as “exothermic”. The ΔH at TauA (ITC, 298 K) is reported as −1.44 (±3.3%) kJ/mol. The compound further registered a ΔS on TauA (ITC, 298 K) of 1.87 J/mol/K. Also, the Kd at TauA (setting [1]) was determined as 7.46 µM; at TauA (setting [2]), 7.4 µM. Besides, the Stoichiometry on TauA (ITC, fitted n) is on record as 0.79(±2.4%).
With `O=S(=O)(O)CCN1CCOCC1` [MES, 2-(N-morpholino)ethanesulfonate], at TauA (ITC), the “heat … (exothermic/endothermic)” value is recorded as “endothermic”. At TauA (ITC, 298 K), the ΔH is given as 4.74 (±0.8%) kJ/mol and the ΔS is 2.45 J/mol/K. Moreover, on TauA (setting [1]), the Kd was found to be 2.85 µM. In addition, the Stoichiometry at TauA (ITC, fitted n) was 0.868(±0.5%). In addition, the Kd at TauA (setting [2]) came out at 2.8 µM.
Consider `NCCS(=O)(=O)O` [taurine, 2-aminoethanesulfonic acid], for which the “heat … (exothermic/endothermic)” value at TauA (ITC) is “exothermic”. Also, the ΔH on TauA (ITC, 298 K) was −61.04 (±0.08%) kJ/mol; at TauA Gln30Ala, −17.87 (±8%) kJ/mol; at TauA Thr132Ala (ITC), −28.76 (±8%) kJ/mol; at TauA Asp205Ala (ITC), −34.83 (±2%) kJ/mol. In addition, the Kd at TauA (setting [1]) is 0.0016 µM; on TauA Gln30Ala (Kd, 298 K), 3.48 µM; on TauA Gln30Ala (affinity) it was 3.5 µM; on TauA Thr132Ala (Kd, ITC, 298 K), 20.6 µM; at TauA Thr132Ala (affinity, ITC), 20.6 µM; at TauA Asp205Ala (Kd, ITC, 298 K), 22.9 µM. The Kd at TauA Asp205Ala (affinity, ITC) was 22.9 µM. In addition, the Stoichiometry at TauA (ITC, fitted n) was 0.768(±0.38%); at TauA Gln30Ala (fitted n), 0.83(±6%); on TauA Thr132Ala (setting [3]), 0.8 ^*; at TauA Asp205Ala (setting [3]), 0.8 ^*. In addition, the ΔS at TauA Gln30Ala is reported as 3.72 J/mol/K; on TauA Thr132Ala (ITC) it was −0.54 J/mol/K; at TauA Asp205Ala (ITC), −2.34 J/mol/K. For the same compound, the taurine binding affinity result at TauA Glu106Ala is “detrimental to taurine binding; also recorded: No binding affinity could be measured”.
In the case of `NCCP(=O)(O)O` [2-AEP, 2-Aminoethylphosphonic acid], the “heat … (exothermic/endothermic)” value on TauA (ITC) is “endothermic”. Also, at TauA (ITC, 298 K), the ΔH is 0.016 (±0.03%) kJ/mol and the ΔS turned out to be 2.33 J/mol/K. Further, the Kd at TauA (Kd (apparent affinity), ITC) came out at 649 µM. On TauA (Kd, ITC, 298 K, 20 mM Tris pH 7.5, 150 mM NaCl), this compound gave a Kd of 649 µM. On TauA (setting [3]), the Stoichiometry is listed as 0.8 ^*.
